≈ marks a conversion by molar mass, not a printed value.
Assays:
Ehrlich carcinoma = assay: Activities against Ehrlich carcinoma (antitumor effect, survival time in mice); type: in vivo, ICR female mice; settings: Mus musculus, ip, 720 h, intraperitoneal, once a day for 10 days, average survival time counted 30 days after implantation, read-out: Antitumor effect (T/C %)
Method: (1) Activities against Ehrlich carcinoma:
To 8 ICR female mice as a group, Ehrlich carcinoma cells were intraperitoneally implanted in an amount of 10^5 cells per mouse. From an elapsed time of 24 hours after the implantation, the compound (I) of this invention which was suspended in physiological saline containing 0.5% of CMC-Na was intraperitoneally administered in predetermined dosages (0.4 mg/kg, 4.0 mg/kg and 40.0 mg/kg), once a day and for 10 days.
Upon an elapsed time of 30 days after the implantation of the carcinoma, the survival time of each mouse was counted. The average survival time of Control Group (C) and that of Group (T), in which the compound of this invention was administered, were obtained respectively. Antitumor effect (T/C %) was then determined in accordance with the following equation. [formula]

Leukemia L-5178Y cells = assay: Cell-killing activities (leukemia L-5178Y cells); type: cell-based; settings: Mus musculus, L5178Y; 48 hours, 37° C., 5% CO2; live cells counted microscopically, probit diagram method
Method: (2) Cell-killing activities:
Leukemia L-5178Y cells were provided to a concentration of 2×10^5cells/ml in PRMI 1640 culture medium which contained 10% of bovine fetus albumin. To portions of the above-prepared culture medium, the compound of this invention was added to concentrations 3.125, 6.25, 12.5, 25, 50, 100 and 300 μg/ml respectively. After culturing them for 48 hours in a 5% CO2 incubator of 37° C., the numbers of live cells on respective portions of the culture were counted microscopically. Percentage proliferation was determined relative to Control and 50% Inhibitory Concentration (IC50) was obtained by the probit diagram method.

| Structure (SMILES) | response vs control in vivo at 0.4 mg/kg (Ehrlich carcinoma) [%] | response vs control in vivo at 4 mg/kg (Ehrlich carcinoma) [%] | response vs control in vivo at 40 mg/kg (Ehrlich carcinoma) [%] | IC50 (Leukemia L-5178Y cells) [µg/mL] |
| --- | --- | --- | --- | --- |
| CC(=O)O[C@H]1[C@H](O)[C@@H](O)[C@@H](O[C@H]2O[C@H](CO)[C@@H](OC(C)=O)[C@H](O)[C@H]2O)O[C@@H]1CO [Compound 11] | 154 | 105 | 114 | – |
| CCCC(=O)O[C@H]1[C@H](O)[C@@H](O)[C@@H](O[C@H]2O[C@H](CO)[C@@H](OC(=O)CCC)[C@H](O)[C@H]2O)O[C@@H]1CO [Compound 12] | 141 | 142 | 114 | – |
| CCCCCC(=O)O[C@H]1[C@H](O)[C@@H](O)[C@@H](O[C@H]2O[C@H](CO)[C@@H](OC(=O)CCCCC)[C@H](O)[C@H]2O)O[C@@H]1CO [Compound 13] | 127 | 120 | 103 | > 300 |
| CCCCCCCC(=O)O[C@H]1[C@H](O)[C@@H](O)[C@@H](O[C@H]2O[C@H](CO)[C@@H](OC(=O)CCCCCCC)[C@H](O)[C@H]2O)O[C@@H]1CO [Compound 14] | 136 | 117 | 183 | 35.1 (≈ 59 µM) |
| CCCCCCCCCC(=O)O[C@H]1[C@H](O)[C@@H](O)[C@@H](O[C@H]2O[C@H](CO)[C@@H](OC(=O)CCCCCCCCC)[C@H](O)[C@H]2O)O[C@@H]1CO [Compound 15] | 121 | 152 | 188 | 11.2 (≈ 17.2 µM) |
| CCCCCCCCCCCC(=O)O[C@H]1[C@H](O)[C@@H](O)[C@@H](O[C@H]2O[C@H](CO)[C@@H](OC(=O)CCCCCCCCCCC)[C@H](O)[C@H]2O)O[C@@H]1CO [Compound 16] | 102 | 180 | 225 | 8.4 (≈ 11.9 µM) |
| CCCCCCCCCCCCCC(=O)O[C@H]1[C@H](O)[C@@H](O)[C@@H](O[C@H]2O[C@H](CO)[C@@H](OC(=O)CCCCCCCCCCCCC)[C@H](O)[C@H]2O)O[C@@H]1CO [Compound 17] | 98 | 203 | 203 | 12.6 (≈ 16.5 µM) |
| CCCCCCCCCCCCCCCC(=O)O[C@H]1[C@H](O)[C@@H](O)[C@@H](O[C@H]2O[C@H](CO)[C@@H](OC(=O)CCCCCCCCCCCCCCC)[C@H](O)[C@H]2O)O[C@@H]1CO [Compound 18] | 125 | 216 | 189 | > 300 |
| CCCCCCCCCCCCCCCCCC(=O)O[C@H]1[C@H](O)[C@@H](O)[C@@H](O[C@H]2O[C@H](CO)[C@@H](OC(=O)CCCCCCCCCCCCCCCCC)[C@H](O)[C@H]2O)O[C@@H]1CO [Compound 19, 4,4'-di-O-stearoyl-α,α-trehalose] | 98 | 183 | 198 | – |
| CCCCCCCCCCCCCCCCCCCCCC(=O)O[C@H]1[C@H](O)[C@@H](O)[C@@H](O[C@H]2O[C@H](CO)[C@@H](OC(=O)CCCCCCCCCCCCCCCCCCCCC)[C@H](O)[C@H]2O)O[C@@H]1CO [Compound 20] | 165 | 179 | 157 | – |
